# Assay results as given in US20260262643A1, “HERBICIDAL BENZOXAZINES” (FMC CORPORATION, priority 2022, published 2026).
# How the values were obtained:
# galium = experiment: Test A postemergence; assay type: in vivo, Galium aparine; conditions: 1000 g ai/ha, Postemergence; 0 to 100 scale
# Summary of the method: (§1)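 Loam/sand soil; pre-em directed soil spray at planting, post-em spray at 1–2 leaf (2–10 cm). Compound in non-phytotoxic solvent + surfactant. Greenhouse 10 d; visual injury vs untreated, 0 = no effect, 100 = complete control.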
# ragweed [1] = experiment: Test A postemergence; assay type: in vivo, Ambrosia artemisiifolia; conditions: 1000 g ai/ha, Postemergence; 0 to 100 scale
# Summary of the method: as §1
# kochia [2] = experiment: Test A preemergence; assay type: in vivo, Bassia scoparia; conditions: 1000 g ai/ha, 0 to 100 scale (0 no effect, 100 complete control), 10 days
# Summary of the method: as §1
# kochia [3] = experiment: Test A postemergence; assay type: in vivo, Bassia scoparia; conditions: 1000 g ai/ha, Postemergence; 0 to 100 scale
# Summary of the method: as §1
# goosegrass [4] = experiment: Test A postemergence; assay type: in vivo, Eleusine indica; conditions: 1000 g ai/ha, Postemergence; 0 to 100 scale
# Summary of the method: as §1
# blackgrass [5] = experiment: Test A postemergence; assay type: in vivo, Alopecurus myosuroides; conditions: 1000 g ai/ha, Postemergence; 0 to 100 scale
# Summary of the method: as §1
# horseweed = experiment: Test A postemergence; assay type: in vivo, Erigeron canadensis; conditions: 1000 g ai/ha, Postemergence; 0 to 100 scale
# Summary of the method: as §1
# rice = experiment: Test B flooded paddy test; assay type: in vivo, Oryza sativa; conditions: 250 g ai/ha, Flood, 13 days, 0 to 100 scale (0 no effect, 100 complete control)
# Description: (§2) Plant species in the flooded paddy test selected from barnyardgrass (Echinochloa crus-galli), ducksalad (Heteranthera limosa), rice (Oryza sativa), and sedge, umbrella (small-flower umbrella sedge, Cyperus difformis) were grown to the 2-leaf stage for testing. At time of treatment, test pots were flooded to 3 cm above the soil surface, treated by application of test compounds directly to the paddy water, and then maintained at that water depth for the duration of the test. Treated plants and controls were maintained in a greenhouse for 13 days, after which time all species were compared to controls and visually evaluated. Plant response ratings, summarized in Table B, are based on a scale of 0 to 100 where 0 is no effect and 100 is complete control. A dash (-) response means no test result.
# pigweed, palmer [6] = experiment: Test A preemergence; assay type: in vivo, Amaranthus palmeri; conditions: 1000 g ai/ha, 0 to 100 scale (0 no effect, 100 complete control), 10 days
# Summary of the method: as §1
# pigweed, palmer [7] = experiment: Test A postemergence; assay type: in vivo, Amaranthus palmeri; conditions: 1000 g ai/ha, Postemergence; 0 to 100 scale
# Summary of the method: as §1
# blackgrass [8] = experiment: Test A preemergence; assay type: in vivo, Alopecurus myosuroides; conditions: 1000 g ai/ha, 0 to 100 scale (0 no effect, 100 complete control), 10 days
# Summary of the method: as §1
# sedge, umbrella = experiment: Test B flooded paddy test; assay type: in vivo, Cyperus difformis; conditions: 250 g ai/ha, Flood, 13 days, 0 to 100 scale (0 no effect, 100 complete control)
# Description: as §2
# ragweed [9] = experiment: Test A preemergence; assay type: in vivo, Ambrosia artemisiifolia; conditions: 1000 g ai/ha, 0 to 100 scale (0 no effect, 100 complete control), 10 days
# Summary of the method: as §1
# foxtail, giant [10] = experiment: Test A preemergence; assay type: in vivo, Setaria faberi; conditions: 1000 g ai/ha, 0 to 100 scale (0 no effect, 100 complete control), 10 days
# Summary of the method: as §1
# barnyardgrass = experiment: Test B flooded paddy test; assay type: in vivo, Echinochloa crus-galli; conditions: 250 g ai/ha, Flood, 13 days, 0 to 100 scale (0 no effect, 100 complete control)
# Description: as §2
# ryegrass, Italian [11] = experiment: Test A preemergence; assay type: in vivo, Lolium multiflorum; conditions: 1000 g ai/ha, 0 to 100 scale (0 no effect, 100 complete control), 10 days
# Summary of the method: as §1
# ryegrass, Italian [12] = experiment: Test A postemergence; assay type: in vivo, Lolium multiflorum; conditions: 1000 g ai/ha, Postemergence; 0 to 100 scale
# Summary of the method: as §1
# goosegrass [13] = experiment: Test A preemergence; assay type: in vivo, Eleusine indica; conditions: 1000 g ai/ha, 0 to 100 scale (0 no effect, 100 complete control), 10 days
# Summary of the method: as §1
# foxtail, giant [14] = experiment: Test A postemergence; assay type: in vivo, Setaria faberi; conditions: 1000 g ai/ha, Postemergence; 0 to 100 scale
# Summary of the method: as §1
# ducksalad = experiment: Test B flooded paddy test; assay type: in vivo, Heteranthera limosa; conditions: 250 g ai/ha, Flood, 13 days, 0 to 100 scale (0 no effect, 100 complete control)
# Description: as §2
structure (smiles),measurement,setting,value
O=C(c1ccnc(-n2cncn2)c1)N1CC(C(F)(F)F)Oc2c(Cl)cccc21 (centres unmarked) [Compound 34],"Plant response rating, Galium",galium,100
same,"Plant response rating, Ragweed",ragweed [1],50
same,"Plant response rating, Kochia",kochia [2],90
same,"Plant response rating, Kochia",kochia [3],100
same,"Plant response rating, Goosegrass",goosegrass [4],50
same,"Plant response rating, Blackgrass",blackgrass [5],70
same,"Plant response rating, Horseweed",horseweed,0
same,"Plant response rating, Rice",rice,0
same,"Plant response rating, Pigweed, Palmer","pigweed, palmer [6]",100
same,"Plant response rating, Pigweed, Palmer","pigweed, palmer [7]",80
same,"Plant response rating, Blackgrass",blackgrass [8],80
same,"Plant response rating, Sedge, Umbrella","sedge, umbrella",0
same,"Plant response rating, Ragweed",ragweed [9],20
same,"Plant response rating, Foxtail, Giant","foxtail, giant [10]",100
same,"Plant response rating, Barnyardgrass",barnyardgrass,0
same,"Plant response rating, Ryegrass, Italian","ryegrass, Italian [11]",90
same,"Plant response rating, Ryegrass, Italian","ryegrass, Italian [12]",90
same,"Plant response rating, Goosegrass",goosegrass [13],100
same,"Plant response rating, Foxtail, Giant","foxtail, giant [14]",100
same,"Plant response rating, Ducksalad",ducksalad,0
